Reference: US9145351B2, “Azole derivatives, methods for producing the same, intermediate thereof, agro-horticultural agents” (KUREHA CORPORATION, priority 2009, dated 2015)
Converted amounts (≈) assume the structure as drawn.

Legend:
Septoria tritici [1] = experiment: Assay for fungicidal effect on Septoria tritici, plate medium 1.25 mg/L (Experimental Example 9); assay type: cell-based; conditions: Zymoseptoria tritici, read-out: growth inhibition grade
Procedure: Each inventive compound was dissolved in 2 ml of dimethyl sulfoxide. 0.6 ml of this solution was added to 60 nil of a PDA medium (potato dextrose agar medium) at about 60 degrees C., which was mixed thoroughly in a 100-ml conical flask, and poured into a dish, where it was solidified, thereby obtaining a plate medium containing the inventive compound at 50 mg/L and 5 mg/L. On the other hand, a subject microorganism previously cultured on a plate medium was cut out using a cork borer whose diameter was 4 mm, and inoculated to the test compound-containing plate medium described above. […] The growth degree of the microorganism on the test compound-containing plate medium thus observed was compared with the growth degree of the microorganism in the untreated group, and % mycelial growth inhibition was calculated by the following equation. R=100(dc−dt)/dc wherein R=% mycelial extension inhibition, dc=flora diameter in untreated plate, dt=flora diameter in treated plate. The results obtained as described above were evaluated as one of the 5 grades according to the following criteria. […] In this Experimental Example, the fungicidal effects of the inventive compounds on Septoria tritici were examined by the methods described in the Experimental Example 5. In this Experimental Example, the inventive compounds were diluted at 1.25 mg/L.

Septoria tritici [2] = experiment: Microplate test of biocidal effect on wheat Septoria blotch (Experimental Example 4); assay type: cell-based; conditions: Zymoseptoria tritici, 240 h; % mycelium growth inhibition, absorbance 550 nm, 20 degrees C. for about 10 days; read-out: activity level (EC80)
Procedure: A spore suspension of wheat Septoria blotch (Septoria tritici) (spore concentration: 1×10^6 cells/ml) was prepared, and subjected to 100-fold dilution with a PD medium. A flat 96-well microplate was provided and 1 microliter of the test compound solution formed by dissolution in dimethyl sulfoxide (DMSO) at a concentration 100 times the test concentration was dispensed to the microplate, and then 100 microliter of the medium containing the spore was added and stirred thoroughly. […] R=100×(dc−dt)/dc: R: % mycelium growth inhibition dc: Absorbance of non-treatment zone dt: Absorbance of treatment zone

Puccinia recondita [3] = experiment: Efficacy test against wheat brown rust, 1 mg/L (Experimental Example 10); assay type: in vivo; conditions: 1 g/ha (1 mg/L sprayed at 1,000 L/ha)
Puccinia recondita [4] = experiment: Efficacy test against wheat brown rust, 2 mg/L (Experimental Example 8); assay type: in vivo; conditions: sprayed at 1,000 L/ha, concentration printed 0.02 mg/L, 9 to 14 days after inoculation
Procedure: Onto a wheat plant (variety: […] The sprayed leaves were air-dried, and inoculated with spore suspension of Puccinia recondita (adjusted at 200 spores/vision, […] was added at 60 ppm) by spraying, and kept at 25 degrees C. and a high humidity for 48 hours. Thereafter, the plant was kept in a greenhouse. Nine to 14 days after inoculation, the wheat brown rust lesion degree was investigated, and the protective value was calculated by the following equation. Protective value (%)=(1-lesion degree in sprayed plot/lesion degree in unsprayed plot)×100

Septoria tritici [5] = experiment: Assay for fungicidal effect on Septoria tritici, plate medium 0.02 mg/L (Experimental Example 7); assay type: cell-based
Excerpt: In this Experimental Example, the fungicidal effects of the inventive compounds on a phytopathogenic fungi, Septoria tritici were examined and compared to the Comparative Compound (3) described in Patent Literature 1 (JPA01-93574) by the methods described below. […] The subject microorganism previously cultured on a plate medium was cut out using a cork borer whose diameter was 4 mm, and inoculated to the test compound-containing plate medium described above. […] The growth degree of the microorganism on the test compound-containing plate medium thus observed was compared with the growth degree of the microorganism in the untreated group, and % mycelial growth inhibition was calculated by the following equation. R=100(dc−dt)/dc wherein R=% mycelial extension inhibition, dc=flora diameter in untreated plate, dt=flora diameter in treated plate. The results obtained as described above were evaluated as one of the 5 grades according to the following criteria. <Growth Inhibition Grade> […]

Compound	inhibition at 1.25 µg/mL (Septoria tritici [1]) [%]	EC80 (Septoria tritici [2]) [µg/mL]	lesion degree (Puccinia recondita [3])	degree (wheat brown rust lesion degree) (Puccinia recondita [4])	grade (growth inhibition grade) (Septoria tritici [5])
CC1(C)CC[C@H](Cc2ccc(Cl)cc2)[C@@]1(O)Cn1cncn1 (racemic) [comparative compound (I), (1RS,5SR)-5-(4-chlorobenzyl)-2,2-dimethyl-1-(1H-1,2,4-triazol-1-ylmethyl)cyclopentanol, reference compound]	40 to 60	0.4 (≈ 1.25 µM)	3 (10% or higher and less than 30%)	–	–
CC1(C)CC[C@@H](Cc2ccc(F)cc2)[C@]1(O)Cn1cncn1 (racemic) [Compound (3)]	–	–	–	3 (10% or higher and less than 30%)	2 (% Mycerial growth inhibition of less than 40 to 20% or higher)
